# Laboratory results: US8530454B2, “Use of 2,5-dihydroxybenzene compounds and derivatives for the treatment of psoriasis” (Amderma Pharmaceuticals, LLC, priority 2006, dated 2013)
# Legend:
# rat glioma C6 cells = experiment: Rat glioma C6 cell proliferation, crystal violet staining; format: cell-based; conditions: 48 h; for C6 cell proliferation (percentage of control absorbance at 595 nm): 500 μM, p<0.001 vs control (FIG. 12)
# Experimental: The cell line used was rat glioma C6 cells. The cells were cultured as previously described (Cuevas P et al. Neurol Res, 2005). The cells were cultured as adherent cells in Dulbecco's modified Eagle's medium, supplemented with 7.5% (v/v) of fetal bovine serum, 10 μg/ml of streptomycin and 10 units/ml of penicillin. The tumor cells were seeded in 24-well plates at a density of 10,000 cells/well, and were incubated at 37° C. in a humidified chamber with 5% CO2. Once adhered, the cells were treated or not (controls) with 2,5-dihydroxybenzoate at 100, 200, 500 or 1000 μM and they were allowed to proliferate for 48 h. After this time the glioma cell proliferation was evaluated by means of staining the fixed cells with crystal violet. The number of cells is proportional to the amount of retained dye, which was spectrophotometrically determined by measuring the absorbance at 595 nm once the dye was extracted from the cells.
# (§1) The cell line used was the C6 cell line and the experiment was carried out as described in Example 2. Once adhered, the cells were treated or not (controls) with increasing concentrations of 2,5-DHC (10, 25, 50 and 100 μM) and they were allowed to proliferate for 48 h. After this time the glioma cell proliferation was evaluated by means of staining the fixed cells with crystal violet. The number of cells is proportional to the amount of retained dye, which was determined spectrophotometrically by measuring absorbance at 595 nm once the dye was extracted from the cells.
# as §1, with “examples 2 and 3.” for “Example 2.”, “(5A-2HBS) (500 μM) or (2A-5HBS) (500” for “increasing concentrations of 2,5-DHC (10, 25, 50 and 100”, “measuring the” for “measuring”
# [1] = tested on: bFGF-induced fibrosis in rat adipose tissue; experiment: bFGF-induced fibrosis around subcutaneously implanted gelatin sponges; format: in vivo, Sprague-Dawley rats; conditions: 100 μM in sponge with bFGF and heparin, 7 days, vs bFGF alone
# Experimental: Sterile gelatin sponges (1 mm^3; Curaspon Dental, Clinimed Holding, Zwanenburg, The Netherlands) were subcutaneously implanted in the dorsal region of the neck in Sprague-Dawley rats after the induction of intraperitoneal anesthesia. The animals were split into two groups: group A, the sponges were moistened with 200 μl of saline solution which contained 25 μg/ml of heparin and 10 μg/ml of basic FGF (bFGF); group B, the sponges were moistened in the same solution as in group A, but which solution farther contained 2,5-dihydroxybenzoate (100 μM). After 7 days, the sponges and the surrounding subcutaneous fat were removed and histologically analyzed.
# [2] = molecular target: fibroblast growth factor-1 (FGF-1) (Homo sapiens, UniProt P05230); experiment: Crystal diffraction of co-crystal complexes with FGF-1; format: binding; conditions: electron density contoured at 1σ; for acetoxyl groups retained when bound to FGF-1: co-crystal; for binding site on FGF-1 in the co-crystal: reference lysine 132
# Experimental: Based on the crystal diffraction of the FGF-1:2-acetoxy-5-hydroxybenzene sulfonic acid, FGF-1:5-acetoxy-2-hydroxybenzene sulfonic acid and FGF-1:2,5-diacetoxybenzene sulfonic acid complexes, the structures of the complexes were calculated and represented. FIGS. 13, 14 and 15, which show the surface of the dyed protein according to its electrostatic potential (light grey, negative charge; dark grey, positive charge; white, regions with no charge), show the manner in which 2-acetoxy-5-hydroxybenzene sulfonic acid, 5-acetoxy-2-hydroxybenzene sulfonic acid and 2,5-diacetoxybenzene sulfonic acid interact, respectively, with FGF-1.
# [3] = tested on: mitogenesis induced by fibroblast growth factor-1 (FGF-1) in Balb/c 3T3 fibroblasts; experiment: Inhibition of FGF-1-induced mitogenesis in quiescent Balb/c 3T3 fibroblasts; format: cell-based; conditions: quiescent Balb/c 3T3 cultures; potassium salts, calcium salt for 2-acetoxy-5-hydroxybenzene sulfonate
# Experimental: The evaluated compounds were used in the form of potassium salt, except in the first case which used calcium salt. The experiments were carried out as described in Fernández-Tornero C et al. J Biol Chem, 2003.
# [4] = tested on: subcutaneous gliomas from implanted rat glioma C6 cells; experiment: Progression of established subcutaneous C6 gliomas in rats; format: in vivo; conditions: 100 mg/kg/day i.p. for 10 days
# Experimental: Rat C6 glioma cells were cultured as previously described (Cuevas P et al. Neurol Res, 2005). The C6 cells cultured to confluence in 75 cm^2 flasks were removed and implanted under the abdominal skin in anesthetized rats. The existence of a tumor in the implantation area was observed five days after the implantation of the tumor cells. Only the rats in which the existence of a tumor was observed were randomly assigned to be treated with daily intraperitoneal injections of 2,5-dihydroxybenzene sulfonate (DHBS; 100 mg/kg/day), 2,5-diacetoxybenzene sulfonate (DABS; 100 mg/kg/day) or the carrier (0.9% NaCl). After 10 days of treatment, the subcutaneous gliomas were removed and their volume was calculated according to the formula V=4/3π·(L/2)·(A/2)^2 (in mm^3) where L is the larger diameter and A is the smaller diameter, both expressed in mm.
# [5] = tested on: tumor cells of subcutaneous gliomas; experiment: Apoptosis in sections of established subcutaneous gliomas (hematoxylin and eosin); format: in vivo, rat; conditions: 100 mg/kg/day i.p. for 10 days, vs carrier (very scarce)
# Excerpt: Tumor cells elude the programmed cell death process or apoptosis that normal cells experience. Apoptosis induction in tumor cells is one way to confront the development of a tumor. To evaluate the effect of potassium 2,5-dihydroxybenzene sulfonate […] on tumor cell apoptosis, 6 μm thick sections of the subcutaneous gliomas described in example 4 were made. The sections were stained with hematoxylin and eosin and observed at a magnification of 313 times using immersion oil. In these conditions, cell apoptosis is shown by the existence of apoptotic bodies appearing as strongly chromogenic granules in the cell nucleus which is frequently fragmented.
# [6] = tested on: human prostate cancer PC-3 cells; experiment: Human tumor cell proliferation (XTT), PC-3; format: cell-based; conditions: 1-200 μM, 96 h
# Experimental: (§2) The cell lines used were the human prostate cancer PC-3 cells and human lung cancer A549 cells. 2000 cells were seeded per well in 96-well plates and they were allowed to adhere overnight. Then the cells were treated or not (controls) with potassium 2,5-diacetoxybenzene sulfonate (DABS) (1-200 μM) and they were allowed to proliferate for 96 h. After this time, the PC-3 and A549 cell proliferation was evaluated by determining the final number of cells by means of the viability method of yellow tetrazolium salt (XTT). The data were expressed as a percentage of the control (without treatment).
# [7] = tested on: subcutaneous tumors from human prostate cancer PC-3 cells; experiment: Subcutaneous PC-3 prostate cancer cell implantation model in athymic mice; format: in vivo, athymic mice (Nu/Nu); conditions: 100 mg/kg daily i.p. for 15 days, vs carrier
# Experimental: 5×10^6 human prostate cancer PC-3 cells were subcutaneously injected in male athymic mice (Nu/Nu) of 6-8 weeks of age and weighing 20-26 g. Ten days after the implantation of the tumor cells, the mice were randomly split into two groups: one of them received a daily injection of potassium 2,5-diacetoxybenzene sulfonate (DABS) by intraperitoneal route at a dose of 100 mg/kg dissolved in saline (0.9% NaCl) whereas the other group received a daily injection of carrier (saline). The treatments were administered for 15 days. The volumes of the tumors induced by the implantation of PC-3 cells were measured through the skin on alternating days using a Vernier caliper. The volume was calculated using the formula V=(D×2d)/2, where D is the larger diameter in mm, d is the smaller diameter in mm and V is the volume in mm3. At the end of treatment, the mice were sacrificed and the tumors were weighed.
# [8] = tested on: human lung cancer A549 cells; experiment: Human tumor cell proliferation (XTT), A549; format: cell-based; conditions: 1-200 μM, 96 h
# Experimental: as §2
# Sequence of fibroblast growth factor-1 (FGF-1) (P05230 whole entry, species assumed): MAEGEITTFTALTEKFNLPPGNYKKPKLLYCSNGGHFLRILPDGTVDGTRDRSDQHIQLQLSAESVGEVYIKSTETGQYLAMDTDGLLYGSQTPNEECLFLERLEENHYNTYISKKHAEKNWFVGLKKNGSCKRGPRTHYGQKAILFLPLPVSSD
smiles,measurement,setting,value
"O=C(O)C=Cc1cc(O)ccc1O [2,5-DHC, 3-(2,5-dihydroxyphenyl)-2-propenoic acid]",C6 cell proliferation relative to control,rat glioma C6 cells; 50 μM,less than half
same,C6 cell proliferation relative to control,rat glioma C6 cells; 100 μM,one tenth
"O=C([O-])c1cc(O)ccc1O.[K+] [2,5-dihydroxybenzoate, potassium 2,5-dihydroxybenzoate]",C6 cell proliferation (absorbance at 595 nm),"rat glioma C6 cells; 100, 200, 500 and 1000 μM",inhibited rat glioma C6 cell proliferation in a concentration-dependent manner
same,statistical significance of inhibition of C6 cell proliferation vs control,"rat glioma C6 cells; 500 and 1000 μM, p<0.001 (FIG. 2)",statistically significant
same,bFGF-induced fibrosis (fibroblasts in septa of connective tissue of adipose tissue),[1],reduces bFGF-induced fibrosis
"CC(=O)Oc1ccc(O)cc1S(=O)(=O)[O-].[K+] [2A-5HBS, potassium 2-acetoxy-5-hydroxybenzene sulfonate]",C6 cell proliferation (percentage of control absorbance at 595 nm),rat glioma C6 cells,caused the inhibition of rat glioma cell proliferation
same,acetoxyl groups retained when bound to FGF-1,[2],conserve the acetoxyl groups
same,binding site on FGF-1 in the co-crystal,[2],"occupy a site that is very close to the one that has been described occupied by 2,5-dihydroxybenzene sulfonic acid"
same,inhibition of mitogenesis induced by FGF-1,[3],inhibition of mitogenesis induced by FGF-1
"CC(=O)Oc1ccc(O)c(S(=O)(=O)[O-])c1.[K+] [5A-2HBS, potassium 5-acetoxy-2-hydroxybenzene sulfonate]",C6 cell proliferation (percentage of control absorbance at 595 nm),rat glioma C6 cells,caused the inhibition of rat glioma cell proliferation
same,acetoxyl groups retained when bound to FGF-1,[2],conserve the acetoxyl groups
same,binding site on FGF-1 in the co-crystal,[2],"occupy a site that is very close to the one that has been described occupied by 2,5-dihydroxybenzene sulfonic acid"
same,inhibition of mitogenesis induced by FGF-1,[3],inhibition of mitogenesis induced by FGF-1
"CC(=O)Oc1ccc(OC(C)=O)c(S(=O)(=O)[O-])c1.[K+] [DABS, potassium 2,5-diacetoxybenzene sulfonate]",rats tumor-free when treatment ended,[4]; all rats had established tumors before treatment,4 rats
same,"probability of being tumor-free (χ2 test), DABS group vs DHBS group",[4]; p<0.05,greater probability of being tumor-free
same,tumor cells in apoptosis in glioma sections,[5],a large number of tumor cells in apoptosis
same,acetoxyl groups retained when bound to FGF-1,[2],conserve the acetoxyl groups
same,binding site on FGF-1 in the co-crystal,[2],"occupy a site that is very close to the one that has been described occupied by 2,5-dihydroxybenzene sulfonic acid"
same,PC-3 cell proliferation (percentage of control),[6],significant inhibition
same,tumor growth (tumor volume through the skin),[7]; start 10 days after implantation,significantly reduced
same,weight of the extracted tumor when treatment ended,[7]; p<0.05,significant reduction of the weight
same,inhibition of mitogenesis induced by FGF-1,[3],inhibition of mitogenesis induced by FGF-1
same,A549 cell proliferation (percentage of control),[8],significant inhibition
"O=S(=O)([O-])c1cc(O)ccc1O.[K+] [DHBS, potassium 2,5-dihydroxybenzene sulfonate, reference compound]",average size (volume) of subcutaneous gliomas,"[4]; treatment from day 5 after implantation, vs carrier",less than that of the rats treated with carrier
same,inhibition of mitogenesis induced by FGF-1,[3],inhibition of the mitogenesis
